Tests used:
[1] = test system: pSLP76(S376) level in Jurkat cell line; assay: Cellular pSLP76(S376) HTRF Assay; type: cell-based; details: Homo sapiens, Jurkat cells, 2 h compound treatment, 0.05 μg/mL anti-human CD3 (OKT3) 30 min
[2] = molecular target: HPK1 kinase (aa1-346, Life Technologies) (Homo sapiens (Human), UniProt Q92918); assay: HPK Kinase Activity Assay at 1 mM ATP (TR-FRET); type: biochemical; details: HPK1 kinase 40 nM, 0.5 μM STK1 substrate, read-out: Enzymatic activity IC50
HPK1 kinase (aa1-346, Life Technologies), sequence (Q92918 1-346): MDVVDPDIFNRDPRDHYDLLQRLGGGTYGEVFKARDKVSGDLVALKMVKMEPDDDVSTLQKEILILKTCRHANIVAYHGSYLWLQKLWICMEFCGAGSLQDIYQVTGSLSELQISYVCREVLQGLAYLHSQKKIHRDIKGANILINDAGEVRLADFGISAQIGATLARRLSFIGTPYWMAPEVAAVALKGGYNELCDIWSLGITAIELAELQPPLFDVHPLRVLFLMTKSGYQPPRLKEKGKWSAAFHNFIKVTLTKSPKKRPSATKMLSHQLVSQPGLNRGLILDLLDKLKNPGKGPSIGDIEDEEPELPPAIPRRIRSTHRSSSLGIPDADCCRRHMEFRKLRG

Row | Structure (SMILES) | IC50 [1] | IC50 [2]
1 | C[C@@H]1COCCN1c1cc(-c2cnc(N)c(Oc3cnn(C4CCN(C)CC4)c3)n2)cc([C@]2(O)CCO[C@H]2C)c1 (single isomer, unassigned) [Example A95B] | 68 nM | 4.5 nM
2 | C[C@@H]1COCCN1c1cc(-c2cnc(N)c(Oc3cnn(C4CCN(C)CC4)c3)n2)cc([C@@]2(O)CCO[C@@H]2C)c1 (single isomer, unassigned) [Example A95A] | – | 44 nM
